Patent US20120095036A1, “NOVEL SUBSTITUTED INDAZOLE AND AZA-INDAZOLE DERIVATIVES AS GAMMA SECRETASE MODULATORS” (priority 2009, published 2012)

Assays:
Type in all cases: cell-based
Aβ42 [1] = assay: Method 2: Aβ42 Alphalisa on supernatant of SKNBE2 cells carrying APP 695 wild type; settings: Homo sapiens, SKNBE2 cells APP 695 wild type, overnight
How it was run: (§1)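 SKNBE2 cells expressing wild-type APP695 (10^4/well) were incubated overnight at 37 °C with compound at several concentrations. Secreted Aβ42 (C-terminal/N-terminal antibody pair) and Aβtotal (N-terminal/4G8 pair) were measured by AlphaLISA in the supernatant. IC50 values came from 4-parameter fits of percent of untreated control.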

Aβtotal = assay: Method 2: Aβtotal Alphalisa on supernatant of SKNBE2 cells carrying APP 695 wild type; settings: Homo sapiens, SKNBE2 cells APP 695 wild type, overnight
How it was run: as §1

Aβ42 [2] = assay: Method 1: Aβ42 sandwich ELISA on media of SKNBE2 cells carrying APP 695 wild type (γ-secretase-modulating activity); settings: Homo sapiens, SKNBE2 cells APP 695 wild type, 18 hours
How it was run: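 SKNBE2 cells expressing wild-type APP695 exposed to compounds for 18 h in Ultraculture with 1% glutamine. Secreted Aβ42 in media quantified by sandwich ELISA (C-terminal capture, biotinylated 3D6 detection, TMB, 450 nm). IC50 from 4-parameter fit, top/bottom fixed 100/0, Hill slope fixed 1; toxicity checked by WST-1.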

Row | SMILES | IC50 (Aβ42 [1]) [µM] | IC50 (Aβtotal) [µM] | IC50 (Aβ42 [2]) [µM]
1 | COc1cccc(-n2cc3cccc(Nc4ccc(-n5cnc(C)c5)c(OC)c4)c3n2)c1 [Compound 1, N-[3-methoxy-4-(4-methyl-1H-imidazol-1-yl)phenyl]-2-(3-methoxyphenyl)-2H-indazol-7-amine] | 0.081 | 8.32 | 0.046
2 | COc1cccc(-n2nc3c(Nc4ccc(-n5cnc(C)c5)c(OC)c4)cccc3c2C)c1 [Compound 2, N-[3-methoxy-4-(4-methyl-1H-imidazol-1-yl)phenyl]-2-(3-methoxyphenyl)-3-methyl-2H-indazol-7-amine] | 0.007 | 6.46 | 0.007
3 | COc1cc(Nc2cccc3cn(CC(F)(F)F)nc23)ccc1-c1cnc(C)o1 [Compound 6, N-[3-methoxy-4-(2-methyl-5-oxazolyl)phenyl]-2-(2,2,2-trifluoroethyl)-2H-indazol-7-amine] | 0.162 | 3.98 | 0.152
4 | COc1cc(Nc2cccc3cn(Cc4ccc(F)cc4)nc23)ccc1-n1cnc(C)c1 [Compound 15, 2-[(4-fluorophenyl)methyl]-N-[3-methoxy-4-(4-methyl-1H-imidazol-1-yl)phenyl]-2H-indazol-7-amine] | 0.014 | 6.61 | 0.075
5 | COc1cccc(-n2nc3c(Nc4ccc(-c5cnc(C)o5)cc4)cccc3c2C)c1 [Compound 29, 2-(3-methoxyphenyl)-3-methyl-N-[4-(2-methyl-5-oxazolyl)phenyl]-2H-indazol-7-amine] | 0.015 | > 10 | 0.028
6 | COc1cc(Nc2cccc3cn(CC4CC4)nc23)ccc1-c1cnc(C)o1.Cl [Compound 38, 2-(cyclopropylmethyl)-N-[3-methoxy-4-(2-methyl-5-oxazolyl)phenyl]-2H-indazol-7-amine HCl] | 0.234 | 4.68 | 0.518
7 | COc1cccc(-n2nc3c(Nc4ccc(-c5cnc(C)o5)c(OC)c4)nccc3c2C)c1 [Compound 42, N-[3-methoxy-4-(2-methyl-5-oxazolyl)phenyl]-2-(3-methoxyphenyl)-3-methyl-2H-pyrazolo[3,4-c]pyridin-7-amine] | 0.12 | 4.37 | 0.091
